# Laboratory results reported in patent US20020048549A1, “Radioactive transition metal nitride heterocomplex” (priority 1996, published 2002).
# Assay: Biodistribution of 99mTcN-DESI in SD rats (Group A alone, Group B with unlabeled desipramine)
# Format: in vivo
# Description: The biodistribution of the ^99mTcN-DESI in SD rats obtained in Example 15 was measured.
# Before being injected into the rats, the ^99mTcN-DESI was separated and purified from the excess and free bidentate ligand by HPLC. The active ingredient of the complex was further purified by passage through a Sep-Pak cartridge activated with 5 ml of 95% ethanol. The final active ingredient was recovered with 95% ethanol and diluted with physiological saline containing 10% Tween 80.
# The rats were divided into two groups, group A and group B. Into each rat in group A was injected 20 μCi of the ^99mTcN-DESI. Into each rat in group B were injected 20 μCi of the ^99mTcN-DESI and 1.0 mg/kg of unlabeled desipramine at the same time.
# SD rats weighing about 250 g were put under intraperitoneal anesthesia with a mixture of xylazine (18 mg/kg) and ketamine (15 mg/kg) and given an injection in the jugular vein. Then, the organs (brain, heart, lung, liver, spleen, kidney, muscle, adrenal, and submaxillary gland) were excised from the rats at different intervals of time, washed and then weighed. In addition, blood samples were collected and then weighed. The data on the biodistribution are expressed as the mean±significant difference of the percentage of radioactivity level per gram of the organ weight based on the dose of radioactivity, (% dose/g). The measurement was carried out using groups of 3 rats each.
# [1] = Group A (complex alone), 10 min
# [2] = Group A (complex alone), 30 min
# [3] = Group A (complex alone), 60 min
# [4] = Group A (complex alone), 120 min
# [5] = Group A (complex alone), 150 min
# [6] = Group B (with 1.0 mg/kg unlabeled desipramine), 2 min
# [7] = Group B (with 1.0 mg/kg unlabeled desipramine), 5 min
# [8] = Group B (with 1.0 mg/kg unlabeled desipramine), 10 min
# [9] = Group B (with 1.0 mg/kg unlabeled desipramine), 30 min
# [10] = Group B (with 1.0 mg/kg unlabeled desipramine), 60 min
# [11] = Group B (with 1.0 mg/kg unlabeled desipramine), 120 min
# [12] = Group B (with 1.0 mg/kg unlabeled desipramine), 150 min
structure (smiles),measurement,setting,value
COCCC[P+]1(CCCOC)CCN(CCOC)CC[P+](CCCOC)(CCCOC)[99Tc-2]12(#[N])[NH]C(C(=O)N(C)CCCN1c3ccccc3CCc3ccccc31)C[S]2 (centres unmarked) [^99mTcN-DESI],Adrenal glands % dose/g,"Group A (complex alone), 2 min",4.227 ± 0.089 % dose/g
same,Blood % dose/g,"Group A (complex alone), 2 min",0.383 ± 0.287 % dose/g
same,Brain % dose/g,"Group A (complex alone), 2 min",0.082 ± 0.010 % dose/g
same,Heart % dose/g,"Group A (complex alone), 2 min",0.904 ± 0.062 % dose/g
same,Kidney % dose/g,"Group A (complex alone), 2 min",6.518 ± 0.821 % dose/g
same,Liver % dose/g,"Group A (complex alone), 2 min",7.259 ± 0.005 % dose/g
same,Lung % dose/g,"Group A (complex alone), 2 min",0.565 ± 0.074 % dose/g
same,Muscle % dose/g,"Group A (complex alone), 2 min",0.110 ± 0.004 % dose/g
same,Spleen % dose/g,"Group A (complex alone), 2 min",1.833 ± 0.249 % dose/g
same,Submaxillary glands % dose/g,"Group A (complex alone), 2 min",1.791 ± 0.249 % dose/g
same,Adrenal glands % dose/g,"Group A (complex alone), 5 min",3.710 ± 0.682 % dose/g
same,Blood % dose/g,"Group A (complex alone), 5 min",0.349 ± 0.033 % dose/g
same,Brain % dose/g,"Group A (complex alone), 5 min",0.079 ± 0.002 % dose/g
same,Heart % dose/g,"Group A (complex alone), 5 min",0.881 ± 0.071 % dose/g
same,Kidney % dose/g,"Group A (complex alone), 5 min",6.193 ± 0.421 % dose/g
same,Liver % dose/g,"Group A (complex alone), 5 min",5.798 ± 0.549 % dose/g
same,Lung % dose/g,"Group A (complex alone), 5 min",0.425 ± 0.094 % dose/g
same,Muscle % dose/g,"Group A (complex alone), 5 min",0.105 ± 0.010 % dose/g
same,Spleen % dose/g,"Group A (complex alone), 5 min",1.927 ± 0.155 % dose/g
same,Submaxillary glands % dose/g,"Group A (complex alone), 5 min",1.721 ± 0.460 % dose/g
same,Adrenal glands % dose/g,[1],5.353 ± 0.339 % dose/g
same,Blood % dose/g,[1],0.212 ± 0.012 % dose/g
same,Brain % dose/g,[1],0.076 ± 0.003 % dose/g
same,Heart % dose/g,[1],0.894 ± 0.016 % dose/g
same,Kidney % dose/g,[1],6.295 ± 0.329 % dose/g
same,Liver % dose/g,[1],4.539 ± 0.286 % dose/g
same,Lung % dose/g,[1],0.399 ± 0.011 % dose/g
same,Muscle % dose/g,[1],0.096 ± 0.009 % dose/g
same,Spleen % dose/g,[1],2.139 ± 0.200 % dose/g
same,Submaxillary glands % dose/g,[1],1.876 ± 0.030 % dose/g
same,Adrenal glands % dose/g,[2],5.153 ± 0.039 % dose/g
same,Blood % dose/g,[2],0.095 ± 0.024 % dose/g
same,Brain % dose/g,[2],0.070 ± 0.005 % dose/g
same,Heart % dose/g,[2],0.951 ± 0.103 % dose/g
same,Kidney % dose/g,[2],10.11 ± 1.762 % dose/g
same,Liver % dose/g,[2],3.069 ± 0.672 % dose/g
same,Lung % dose/g,[2],0.351 ± 0.085 % dose/g
same,Muscle % dose/g,[2],0.098 ± 0.021 % dose/g
same,Spleen % dose/g,[2],1.965 ± 0.158 % dose/g
same,Submaxillary glands % dose/g,[2],2.065 ± 0.069 % dose/g
same,Adrenal glands % dose/g,[3],4.800 ± 1.737 % dose/g
same,Blood % dose/g,[3],0.069 ± 0.008 % dose/g
same,Brain % dose/g,[3],0.064 ± 0.003 % dose/g
same,Heart % dose/g,[3],0.931 ± 0.025 % dose/g
same,Kidney % dose/g,[3],6.227 ± 1.020 % dose/g
same,Liver % dose/g,[3],2.809 ± 0.739 % dose/g
same,Lung % dose/g,[3],0.224 ± 0.070 % dose/g
same,Muscle % dose/g,[3],0.108 ± 0.015 % dose/g
same,Spleen % dose/g,[3],1.873 ± 0.667 % dose/g
same,Submaxillary glands % dose/g,[3],1.491 ± 1.149 % dose/g
same,Adrenal glands % dose/g,[4],4.220 ± 0.182 % dose/g
same,Blood % dose/g,[4],0.068 ± 0.001 % dose/g
same,Brain % dose/g,[4],0.051 ± 0.001 % dose/g
same,Heart % dose/g,[4],0.806 ± 0.080 % dose/g
same,Kidney % dose/g,[4],5.538 ± 0.607 % dose/g
same,Liver % dose/g,[4],1.463 ± 0.186 % dose/g
same,Lung % dose/g,[4],0.151 ± 0.001 % dose/g
same,Muscle % dose/g,[4],0.397 ± 0.033 % dose/g
same,Spleen % dose/g,[4],1.453 ± 0.085 % dose/g
same,Submaxillary glands % dose/g,[4],1.351 ± 0.037 % dose/g
same,Adrenal glands % dose/g,[5],5.013 ± 1.061 % dose/g
same,Blood % dose/g,[5],0.058 ± 0.008 % dose/g
same,Brain % dose/g,[5],0.034 ± 0.004 % dose/g
same,Heart % dose/g,[5],0.884 ± 0.075 % dose/g
same,Kidney % dose/g,[5],7.182 ± 0.349 % dose/g
same,Liver % dose/g,[5],1.375 ± 0.054 % dose/g
same,Lung % dose/g,[5],0.194 ± 0.002 % dose/g
same,Muscle % dose/g,[5],0.090 ± 0.009 % dose/g
same,Spleen % dose/g,[5],1.461 ± 0.132 % dose/g
same,Submaxillary glands % dose/g,[5],1.976 ± 0.293 % dose/g
same,Adrenal glands % dose/g,[6],4.314 ± 0.718 % dose/g
same,Blood % dose/g,[6],0.467 ± 0.011 % dose/g
same,Brain % dose/g,[6],0.032 ± 0.004 % dose/g
same,Heart % dose/g,[6],0.793 ± 0.037 % dose/g
same,Kidney % dose/g,[6],5.492 ± 0.602 % dose/g
same,Liver % dose/g,[6],5.149 ± 0.787 % dose/g
same,Lung % dose/g,[6],0.488 ± 0.042 % dose/g
same,Muscle % dose/g,[6],0.103 ± 0.002 % dose/g
same,Spleen % dose/g,[6],1.841 ± 0.197 % dose/g
same,Submaxillary glands % dose/g,[6],1.878 ± 0.09 % dose/g
same,Adrenal glands % dose/g,[7],4.480 ± 0.991 % dose/g
same,Blood % dose/g,[7],0.277 ± 0.028 % dose/g
same,Brain % dose/g,[7],0.029 ± 0.003 % dose/g
same,Heart % dose/g,[7],0.819 ± 0.052 % dose/g
same,Kidney % dose/g,[7],5.899 ± 1.397 % dose/g
same,Liver % dose/g,[7],6.420 ± 0.378 % dose/g
same,Lung % dose/g,[7],0.353 ± 0.028 % dose/g
same,Muscle % dose/g,[7],0.101 ± 0.014 % dose/g
same,Spleen % dose/g,[7],2.032 ± 0.197 % dose/g
same,Submaxillary glands % dose/g,[7],1.786 ± 0.201 % dose/g
same,Adrenal glands % dose/g,[8],4.349 ± 0.164 % dose/g
same,Blood % dose/g,[8],0.170 ± 0.020 % dose/g
same,Brain % dose/g,[8],0.018 ± 0.001 % dose/g
same,Heart % dose/g,[8],0.814 ± 0.023 % dose/g
same,Kidney % dose/g,[8],5.192 ± 0.036 % dose/g
same,Liver % dose/g,[8],4.732 ± 0.057 % dose/g
same,Lung % dose/g,[8],0.348 ± 0.003 % dose/g
same,Muscle % dose/g,[8],0.086 ± 0.007 % dose/g
same,Spleen % dose/g,[8],1.559 ± 0.074 % dose/g
same,Submaxillary glands % dose/g,[8],1.669 ± 0.126 % dose/g
same,Adrenal glands % dose/g,[9],6.120 ± 2.224 % dose/g
same,Blood % dose/g,[9],0.169 ± 0.028 % dose/g
same,Brain % dose/g,[9],0.018 ± 0.003 % dose/g
same,Heart % dose/g,[9],0.832 ± 0.170 % dose/g
same,Kidney % dose/g,[9],7.883 ± 1.689 % dose/g
same,Liver % dose/g,[9],4.957 ± 0.168 % dose/g
same,Lung % dose/g,[9],0.27 ± 0.117 % dose/g
same,Muscle % dose/g,[9],0.091 ± 0.011 % dose/g
same,Spleen % dose/g,[9],1.339 ± 0.380 % dose/g
same,Submaxillary glands % dose/g,[9],1.042 ± 0.123 % dose/g
same,Adrenal glands % dose/g,[10],4.321 ± 0.712 % dose/g
same,Blood % dose/g,[10],0.074 ± 0.016 % dose/g
same,Brain % dose/g,[10],0.016 ± 0.002 % dose/g
same,Heart % dose/g,[10],0.693 ± 0.057 % dose/g
same,Kidney % dose/g,[10],5.176 ± 0.584 % dose/g
same,Liver % dose/g,[10],2.505 ± 0.113 % dose/g
same,Lung % dose/g,[10],0.253 ± 0.014 % dose/g
same,Muscle % dose/g,[10],0.110 ± 0.024 % dose/g
same,Spleen % dose/g,[10],1.403 ± 0.209 % dose/g
same,Submaxillary glands % dose/g,[10],1.596 ± 0.138 % dose/g
same,Adrenal glands % dose/g,[11],4.588 ± 0.985 % dose/g
same,Blood % dose/g,[11],0.050 ± 0.007 % dose/g
same,Brain % dose/g,[11],0.004 ± 0.000 % dose/g
same,Heart % dose/g,[11],0.745 ± 0.063 % dose/g
same,Kidney % dose/g,[11],5.737 ± 0.093 % dose/g
same,Liver % dose/g,[11],1.159 ± 0.09 % dose/g
same,Lung % dose/g,[11],0.206 ± 0.048 % dose/g
same,Muscle % dose/g,[11],0.343 ± 0.443 % dose/g
same,Spleen % dose/g,[11],1.865 ± 0.313 % dose/g
same,Submaxillary glands % dose/g,[11],1.641 ± 0.280 % dose/g
same,Adrenal glands % dose/g,[12],4.09 ± 0.294 % dose/g
same,Blood % dose/g,[12],0.050 ± 0.014 % dose/g
same,Brain % dose/g,[12],0.001 ± 0.000 % dose/g
same,Heart % dose/g,[12],0.815 ± 0.070 % dose/g
same,Kidney % dose/g,[12],5.646 ± 1.192 % dose/g
same,Liver % dose/g,[12],1.253 ± 0.006 % dose/g
same,Lung % dose/g,[12],0.163 ± 0.036 % dose/g
same,Muscle % dose/g,[12],0.096 ± 0.007 % dose/g
same,Spleen % dose/g,[12],1.637 ± 0.147 % dose/g
same,Submaxillary glands % dose/g,[12],1.983 ± 0.339 % dose/g
same,accumulation in adrenal,SD rats,very large amount
same,accumulation in heart,SD rats,considerable amount
same,elimination through liver and kidney,SD rats,very rapidly eliminated
